Columns and labels:
Experiment in all cases: Kinase inhibitor library screening, PrestoBlue cell viability, 1 or 10 μM, 72 h
[1] = system: IGR37-GP cells (Dabrafenib-resistant); conditions: IGR37 GP
501Mel cells (parental) = conditions: 501Mel Parental, in %
Outline: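 Kinase inhibitors added at two fixed concentrations; 72 h exposure; PrestoBlue readout; % viability vs untreated; n ≥ 2 per line.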

[2] = system: IGR37-XP cells (Vemurafenib-resistant); conditions: IGR37 XP
A375 cells (parental) = conditions: A375 Parental; for cell viability (kinase inhibitor library screening): in %
[3] = system: 501Mel-GP cells (Dabrafenib-resistant); conditions: 501Mel GP, in %
[4] = system: A375-GP cells (Dabrafenib-resistant); conditions: A375 GP; for cell viability (kinase inhibitor library screening): in %
IGR37 cells (parental) = conditions: IGR37 Parental, in %
[5] = system: 501Mel-XP cells (Vemurafenib-resistant); conditions: 501Mel XP, in %
[6] = system: A375-XP cells (Vemurafenib-resistant); conditions: A375 XP; for cell viability (kinase inhibitor library screening): in %

SMILES | cell viability (kinase inhibitor library screening) ([1]; 1μΜ, in %) | cell viability (kinase inhibitor library screening) ([1]; 10μΜ, in %) | cell viability (kinase inhibitor library screening) (501Mel cells (parental); 1μΜ) | cell viability (kinase inhibitor library screening) (501Mel cells (parental); 10μΜ) | cell viability (kinase inhibitor library screening) ([2]; 1μΜ, in %) | cell viability (kinase inhibitor library screening) ([2]; 10μΜ, in %) | cell viability (kinase inhibitor library screening) (A375 cells (parental); 1μΜ) | cell viability (kinase inhibitor library screening) (A375 cells (parental); 10μΜ) | cell viability (kinase inhibitor library screening) ([3]; 1μΜ) | cell viability (kinase inhibitor library screening) ([3]; 10μΜ) | cell viability (kinase inhibitor library screening) ([4]; 1μΜ) | cell viability (kinase inhibitor library screening) ([4]; 10μΜ) | cell viability (kinase inhibitor library screening) (IGR37 cells (parental); 1μΜ) | cell viability (kinase inhibitor library screening) (IGR37 cells (parental); 10μΜ) | cell viability (kinase inhibitor library screening) ([5]; 10μΜ) | cell viability (kinase inhibitor library screening) ([6]; 1μΜ) | cell viability (kinase inhibitor library screening) ([6]; 10μΜ) | other results
COc1ccc2c(c1OC)N=C(NC(=O)c1cccnc1)N1CCN=C21 [PIK-90] |  |  |  |  |  |  |  |  |  |  |  |  |  |  |  |  |  | Cell viability in kinase inhibitor library screening, IGR37 GP, 10μΜ ([1]; 10μΜ, 72 h): 60.2%; Cell viability in kinase inhibitor library screening, IGR37 GP, 1μΜ ([1]; 1μΜ, 72 h, in %): 89.1; Cell viability in kinase inhibitor library screening, 501Mel Parental, 1μΜ (501Mel cells (parental); 1μΜ, 72 h): 97.1; Cell viability in kinase inhibitor library screening, 501Mel Parental, 10μΜ (501Mel cells (parental); 10μΜ, 72 h): 71.7; Cell viability in kinase inhibitor library screening, IGR37 XP, 10μΜ ([2]; 10μΜ, 72 h): 19.4%; Cell viability in kinase inhibitor library screening, IGR37 XP, 1μΜ ([2]; 1μΜ, 72 h, in %): 85.5; Cell viability in kinase inhibitor library screening, A375 Parental, 10μΜ (A375 cells (parental); 10μΜ, 72 h): 58.0; Cell viability in kinase inhibitor library screening, A375 Parental, 1μΜ (A375 cells (parental); 1μΜ, 72 h): 94.8; Cell viability in kinase inhibitor library screening, 501Mel GP, 1μΜ ([3]; 1μΜ, 72 h): 98.4; Cell viability in kinase inhibitor library screening, 501Mel GP, 10μΜ ([3]; 10μΜ, 72 h): 50.5; Cell viability in kinase inhibitor library screening, A375 GP, 1μΜ ([4]; 1μΜ, 72 h): 90.1; Cell viability in kinase inhibitor library screening, A375 GP, 10μΜ ([4]; 10μΜ, 72 h): 52.7; Cell viability in kinase inhibitor library screening, IGR37 Parental, 10μΜ (IGR37 cells (parental); 10μΜ, 72 h): 82.3; Cell viability in kinase inhibitor library screening, 501Mel XP, 1μΜ ([5]; 1μΜ, 72 h): 85.8; Cell viability in kinase inhibitor library screening, 501Mel XP, 10μΜ ([5]; 10μΜ, 72 h): 43.2; Cell viability in kinase inhibitor library screening, A375 XP, 1μΜ ([6]; 1μΜ, 72 h): 91.5; Cell viability in kinase inhibitor library screening, A375 XP, 10μΜ ([6]; 10μΜ, 72 h): 58.7
CNC(=O)c1cc(COc2nnc(Nc3ccc(Cl)cc3)c3ccoc23)ccn1 [Telatinib (BAY 57-9352)] | 94.5 | 88.0 | 96.8 | 90.0 | 98.1 | 70.8 | 99.4 | 95.9 | 99.0 | 76.1 | 98.3 | 92.0 | 99.2 | 97.3 | 68.9 | 96.6 | 95.7 | 
COc1cc(Nc2c(C#N)cnc3cc(OCCCN4CCN(C)CC4)c(OC)cc23)c(Cl)cc1Cl [Bosutinib (SKI-606)] | 95.0 | 20.7 | 98.4 | 0.645 | 98.8 | 4.2 | 80.1 | 39.3 | 91.9 | -0.266 | 85.6 | 32.7 | 97.3 | 1.8 | -0.2 | 83.7 | 30.5 | cell viability (kinase inhibitor library screening) ([5]; 1μΜ): 103.1

From publication PMC6364417, “Kinase inhibitor library screening identifies synergistic drug combinations effective in sensitive and resistant melanoma cells” (Journal of Experimental & Clinical Cancer Research : CR, 2019)
